In ChEMBL document CHEMBL5346973 (J Med Chem, 2023):
Where a SMILES comes first, the peptide text is derived from it.

What was measured:
[1] = target: Nicotinic acetylcholine receptor alpha9/alpha10 (Rattus norvegicus, UniProt P43144+Q9JLB5); assay: Antagonist activity at rat alpha9alpha10 nACh receptor expressed in Xenopus oocyte assessed as inhibition of acetylcholine-induced response at -70 mV holding potential by voltage-clamp based electrophysiological assay; type: cell-based
[2] = target: Neuronal acetylcholine receptor subunit alpha-7 (Rattus norvegicus, UniProt Q05941); assay: Antagonist activity at rat alpha7 nACh receptor expressed in Xenopus oocyte assessed as inhibition of acetylcholine-induced response at -70 mV holding potential by voltage-clamp based electrophysiological assay; type: cell-based
Neuronal acetylcholine receptor subunit alpha-7, sequence (Q05941 whole entry): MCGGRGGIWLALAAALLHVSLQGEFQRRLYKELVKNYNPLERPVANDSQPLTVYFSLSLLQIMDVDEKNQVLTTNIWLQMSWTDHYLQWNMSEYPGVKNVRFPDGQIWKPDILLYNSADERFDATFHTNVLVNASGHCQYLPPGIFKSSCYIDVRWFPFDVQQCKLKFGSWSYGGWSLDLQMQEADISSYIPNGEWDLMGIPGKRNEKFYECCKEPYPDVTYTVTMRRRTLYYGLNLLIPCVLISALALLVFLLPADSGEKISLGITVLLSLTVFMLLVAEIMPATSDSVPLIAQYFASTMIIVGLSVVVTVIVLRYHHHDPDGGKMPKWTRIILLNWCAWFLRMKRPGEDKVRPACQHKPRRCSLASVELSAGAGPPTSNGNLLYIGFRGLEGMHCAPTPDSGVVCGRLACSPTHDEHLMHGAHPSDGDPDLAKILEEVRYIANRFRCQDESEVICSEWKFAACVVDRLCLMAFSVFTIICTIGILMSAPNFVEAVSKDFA

Nicotinic acetylcholine receptor alpha9/alpha10, sequence (P43144 whole entry): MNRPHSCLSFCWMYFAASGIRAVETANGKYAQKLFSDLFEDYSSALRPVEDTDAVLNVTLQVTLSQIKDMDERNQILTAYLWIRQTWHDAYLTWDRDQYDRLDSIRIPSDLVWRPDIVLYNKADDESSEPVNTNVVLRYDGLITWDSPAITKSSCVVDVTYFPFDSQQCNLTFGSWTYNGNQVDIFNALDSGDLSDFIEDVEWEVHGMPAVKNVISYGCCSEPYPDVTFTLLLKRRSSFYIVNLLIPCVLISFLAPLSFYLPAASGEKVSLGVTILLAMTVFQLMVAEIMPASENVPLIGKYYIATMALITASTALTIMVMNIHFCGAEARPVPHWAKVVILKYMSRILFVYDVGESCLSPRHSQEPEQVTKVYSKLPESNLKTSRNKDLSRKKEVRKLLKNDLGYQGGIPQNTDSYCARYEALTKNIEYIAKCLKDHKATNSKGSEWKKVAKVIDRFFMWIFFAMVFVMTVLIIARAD
Nicotinic acetylcholine receptor alpha9/alpha10, sequence (Q9JLB5 whole entry): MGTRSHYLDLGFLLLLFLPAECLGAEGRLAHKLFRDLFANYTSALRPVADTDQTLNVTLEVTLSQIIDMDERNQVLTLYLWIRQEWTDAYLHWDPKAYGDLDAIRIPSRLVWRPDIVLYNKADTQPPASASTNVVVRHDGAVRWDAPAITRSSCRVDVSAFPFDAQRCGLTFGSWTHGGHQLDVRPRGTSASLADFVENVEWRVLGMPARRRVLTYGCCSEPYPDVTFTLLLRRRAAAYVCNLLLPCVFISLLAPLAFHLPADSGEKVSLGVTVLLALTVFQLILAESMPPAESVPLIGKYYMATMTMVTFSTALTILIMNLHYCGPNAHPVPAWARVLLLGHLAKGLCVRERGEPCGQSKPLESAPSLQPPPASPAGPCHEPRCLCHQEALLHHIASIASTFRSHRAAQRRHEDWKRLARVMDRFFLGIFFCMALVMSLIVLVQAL

Structure (SMILES)	IC50 [1] [nM]	IC50 [2] [nM]
CC[C@H](C)[C@@H]1NC(=O)[C@H](CCCNC(=N)N)NC(=O)[C@H](CCCNC(=N)N)NC(=O)[C@@H]2CSSC[C@H](NC(=O)[C@H](Cc3ccc(O)cc3)NC(=O)[C@H](CCCNC(=N)N)NC(=O)CNC(=O)[C@H](CO)NC(=O)[C@H](CO)NC(=O)[C@H](CCCNC(=N)N)NC(=O)[C@@H](NC(=O)[C@@H](N)[C@@H](C)O)CSSC[C@@H](C(=O)N[C@H](C(=O)O)C(C)C)NC(=O)[C@H](C)NC(=O)[C@H](CC(=O)O)NC(=O)[C@H]([C@@H](C)O)NC1=O)C(=O)N[C@@H](CCCNC(=N)N)C(=O)N[C@@H](CO)C(=O)N1CCC[C@H]1C(=O)N[C@@H](Cc1ccc(O)cc1)C(=O)N[C@@H](CC(=O)O)C(=O)N[C@@H](C)C(=O)N[C@@H](CCCNC(=N)N)C(=O)N[C@@H](CCCNC(=N)N)C(=O)N[C@@H](CCCNC(=N)N)C(=O)N[C@@H](Cc1ccc(O)cc1)C(=O)N2	34	6440
CC[C@H](C)[C@@H]1NC(=O)[C@H](C)NC(=O)[C@H](CCCNC(=N)N)NC(=O)[C@@H](NC(=O)[C@H](Cc2ccc(O)cc2)NC(=O)[C@H](CCCNC(=N)N)NC(=O)[C@H](CCCNC(=N)N)NC(=O)[C@H](CCCNC(=N)N)NC(=O)[C@H](CCCNC(=N)N)NC(=O)[C@H](CC(=O)O)NC(=O)[C@H](Cc2ccc(O)cc2)NC(=O)[C@@H]2CCCN2C(=O)[C@H](CO)NC(=O)[C@H](CCCNC(=N)N)NC(=O)[C@@H]2CSSC[C@H](NC(=O)[C@@H](N)[C@@H](C)O)C(=O)N[C@@H](CCCNC(=N)N)C(=O)N[C@@H](CO)C(=O)N[C@@H](CO)C(=O)NCC(=O)N[C@@H](CCCNC(=N)N)C(=O)N[C@@H](Cc3ccc(O)cc3)C(=O)N2)CSSC[C@@H](C(=O)N[C@H](C(=O)O)C(C)C)NC(=O)[C@H](C)NC(=O)[C@H](CC(=O)O)NC(=O)[C@H]([C@@H](C)O)NC1=O	54	600
CC[C@H](C)[C@@H]1NC(=O)[C@H](CCCNC(=N)N)NC(=O)[C@H](CCCNC(=N)N)NC(=O)[C@@H]2CSSC[C@H](NC(=O)[C@H](Cc3ccc(O)cc3)NC(=O)[C@H](CCCNC(=N)N)NC(=O)CNC(=O)[C@H](CO)NC(=O)[C@H](CO)NC(=O)[C@H](CCCNC(=N)N)NC(=O)[C@@H](NC(=O)[C@@H](N)[C@@H](C)O)CSSC[C@@H](C(=O)N[C@H](C(=O)O)C(C)C)NC(=O)[C@H](C)NC(=O)[C@H](CC(=O)O)NC(=O)[C@H]([C@@H](C)O)NC1=O)C(=O)N[C@@H](CCCNC(=N)N)C(=O)N[C@@H](CO)C(=O)N1CCC[C@H]1C(=O)N[C@@H](Cc1ccc(O)cc1)C(=O)N[C@@H](CC(=O)O)C(=O)N[C@@H](CCCNC(=N)N)C(=O)N[C@@H](C)C(=O)N[C@@H](CCCNC(=N)N)C(=O)N[C@@H](CCCNC(=N)N)C(=O)N[C@@H](Cc1ccc(O)cc1)C(=O)N2	83	> 10000
CC[C@H](C)[C@@H]1NC(=O)[C@H](CCCNC(=N)N)NC(=O)[C@H](CCCNC(=N)N)NC(=O)[C@@H]2CSSC[C@H](NC(=O)[C@H](Cc3ccc(O)cc3)NC(=O)[C@H](CCCNC(=N)N)NC(=O)CNC(=O)[C@H](CO)NC(=O)[C@H](CO)NC(=O)[C@H](CCCNC(=N)N)NC(=O)[C@@H](NC(=O)[C@@H](N)[C@@H](C)O)CSSC[C@@H](C(=O)N[C@H](C(=O)O)C(C)C)NC(=O)[C@H](C)NC(=O)[C@H](CC(=O)O)NC(=O)[C@H]([C@@H](C)O)NC1=O)C(=O)N[C@@H](CCCNC(=N)N)C(=O)N[C@@H](CO)C(=O)N[C@@H](C)C(=O)N[C@@H](Cc1ccc(O)cc1)C(=O)N[C@@H](CC(=O)O)C(=O)N[C@@H](CCCNC(=N)N)C(=O)N[C@@H](CCCNC(=N)N)C(=O)N[C@@H](CCCNC(=N)N)C(=O)N[C@@H](CCCNC(=N)N)C(=O)N[C@@H](Cc1ccc(O)cc1)C(=O)N2 (HELM PEPTIDE1{T.C.R.S.S.G.R.Y.C.R.S.A.Y.D.R.R.R.R.Y.C.R.R.I.T.D.A.C.V}$PEPTIDE1,PEPTIDE1,2:R3-27:R3|PEPTIDE1,PEPTIDE1,9:R3-20:R3$$$V2.0)	10	1780
